Source: PubChem BioAssay (NCI)
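Tested at 5 concentrations; 48 h exposure; 96-well plates; endpoints linearly interpolated, else capped at highest concentration. The concentration for 50% growth inhibition is given as GI50. TGI denotes the concentration required for complete inhibition of growth.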

Experiments:
Assay in all cases: NCI tumour cell line growth inhibition, 48 h
786-0 renal = test system: 786-0 renal
A498 renal = test system: A498 renal
A549 NSCLC = test system: A549 NSCLC
ACHN renal = test system: ACHN renal
BT-549 breast = test system: BT-549 breast
CAKI-1 renal = test system: CAKI-1 renal
CCRF-CEM leukemia = test system: CCRF-CEM leukemia
COLO 205 colon = test system: COLO 205 colon
DU-145 prostate = test system: DU-145 prostate
EKVX NSCLC = test system: EKVX NSCLC
HCC-2998 colon = test system: HCC-2998 colon
HCT-116 colon = test system: HCT-116 colon
HCT-15 colon = test system: HCT-15 colon
HL-60(TB) leukemia = test system: HL-60(TB) leukemia
HOP-62 NSCLC = test system: HOP-62 NSCLC
HOP-92 NSCLC = test system: HOP-92 NSCLC
HS 578T breast = test system: HS 578T breast
HT29 colon = test system: HT29 colon
IGROV1 ovarian = test system: IGROV1 ovarian
K-562 leukemia = test system: K-562 leukemia
KM12 colon = test system: KM12 colon
LOX IMVI melanoma = test system: LOX IMVI melanoma
M14 melanoma = test system: M14 melanoma
MALME-3M melanoma = test system: MALME-3M melanoma
MCF7 breast = test system: MCF7 breast
MDA-MB-231 breast = test system: MDA-MB-231 breast
MDA-MB-435 = test system: MDA-MB-435
MDA-MB-468 breast = test system: MDA-MB-468 breast
MOLT-4 leukemia = test system: MOLT-4 leukemia
NCI-H226 lung = test system: NCI-H226 lung
NCI-H23 lung = test system: NCI-H23 lung
NCI-H460 lung = test system: NCI-H460 lung
NCI-H522 lung = test system: NCI-H522 lung
NCI/ADR-RES ovarian = test system: NCI/ADR-RES ovarian
OVCAR-3 ovarian = test system: OVCAR-3 ovarian
OVCAR-4 ovarian = test system: OVCAR-4 ovarian
OVCAR-5 ovarian = test system: OVCAR-5 ovarian
OVCAR-8 ovarian = test system: OVCAR-8 ovarian
PC-3 prostate = test system: PC-3 prostate
RPMI-8226 leukemia = test system: RPMI-8226 leukemia
RXF 393 renal = test system: RXF 393 renal
SF-268 CNS = test system: SF-268 CNS
SF-295 CNS = test system: SF-295 CNS
SF-539 CNS = test system: SF-539 CNS
SK-MEL-2 melanoma = test system: SK-MEL-2 melanoma
SK-MEL-28 melanoma = test system: SK-MEL-28 melanoma
SK-MEL-5 melanoma = test system: SK-MEL-5 melanoma
SK-OV-3 ovarian = test system: SK-OV-3 ovarian
SN12C renal = test system: SN12C renal
SNB-19 CNS = test system: SNB-19 CNS
SNB-75 CNS = test system: SNB-75 CNS
SR leukemia = test system: SR leukemia
SW-620 colon = test system: SW-620 colon
T-47D breast = test system: T-47D breast
TK-10 renal = test system: TK-10 renal
U251 CNS = test system: U251 CNS
UACC-257 melanoma = test system: UACC-257 melanoma
UACC-62 melanoma = test system: UACC-62 melanoma
UO-31 renal = test system: UO-31 renal

Compound `COc1ccc2[nH]c(O)c(N=NC(=O)COc3ccc(NC(=O)Nc4ccccc4)cc3)c2c1` has a GI50 (786-0 renal) of 13.6 µM, a TGI (786-0 renal) of 30.6 µM and a GI50 (A498 renal) of 18.3 µM. It also gave a TGI (A498 renal) of 38.4 µM, a GI50 (A549 NSCLC) of 21.9 µM and a TGI (A549 NSCLC) of 58.4 µM. The GI50 (ACHN renal) was 39.5 µM, the TGI (ACHN renal) was greater than 100 µM and the TGI (BT-549 breast) was 20.2 µM. The GI50 (CAKI-1 renal) was 24.3 µM, the TGI (CAKI-1 renal) was 70.1 µM and the GI50 (CCRF-CEM leukemia) was 33.1 µM. It also gave a TGI (CCRF-CEM leukemia) greater than 100 µM, a GI50 (COLO 205 colon) of 16.5 µM and a TGI (COLO 205 colon) of 33.5 µM. For the same compound, the GI50 (DU-145 prostate) was 30.9 µM, the TGI (DU-145 prostate) was greater than 100 µM and the GI50 (EKVX NSCLC) was 35.3 µM. For the same compound, the TGI (EKVX NSCLC) was greater than 100 µM, the GI50 (HCC-2998 colon) was 17.5 µM and the TGI (HCC-2998 colon) was 42.8 µM. The GI50 (HCT-116 colon) was 2.91 µM, the TGI (HCT-116 colon) was 27.5 µM and the GI50 (HCT-15 colon) was greater than 100 µM. It also gave a TGI (HCT-15 colon) greater than 100 µM, a GI50 (HL-60(TB) leukemia) of 29.6 µM and a TGI (HL-60(TB) leukemia) greater than 100 µM. The GI50 (HOP-62 NSCLC) was 18.5 µM, the TGI (HOP-62 NSCLC) was 34.6 µM and the GI50 (HOP-92 NSCLC) was 7.82 µM. The TGI (HOP-92 NSCLC) was 25.4 µM, the GI50 (HS 578T breast) was 17.3 µM and the TGI (HS 578T breast) was 75.6 µM. For the same compound, the GI50 (HT29 colon) was 26 µM, the TGI (HT29 colon) was greater than 100 µM and the GI50 (IGROV1 ovarian) was 22.5 µM. For the same compound, the TGI (IGROV1 ovarian) was 59.2 µM, the GI50 (K-562 leukemia) was 26.7 µM and the TGI (K-562 leukemia) was greater than 100 µM. For the same compound, the GI50 (KM12 colon) was 0.684 µM, the TGI (KM12 colon) was 21 µM and the GI50 (LOX IMVI melanoma) was 17 µM. For the same compound, the TGI (LOX IMVI melanoma) was 36.8 µM, the GI50 (M14 melanoma) was 2.9 µM and the TGI (M14 melanoma) was 21.1 µM. It also gave a GI50 (MALME-3M melanoma) of 14.4 µM, a TGI (MALME-3M melanoma) of 28.4 µM and a GI50 (MCF7 breast) of 17.4 µM. The TGI (MCF7 breast) was 40.2 µM, the GI50 (MDA-MB-231 breast) was 14.3 µM and the TGI (MDA-MB-231 breast) was 28.6 µM. It also gave a GI50 (MDA-MB-435) of 16.3 µM, a TGI (MDA-MB-435) of 35.4 µM and a GI50 (MDA-MB-468 breast) of 11.1 µM. It also gave a TGI (MDA-MB-468 breast) of 26.2 µM, a GI50 (MOLT-4 leukemia) of 23.7 µM and a TGI (MOLT-4 leukemia) greater than 100 µM. The GI50 (NCI-H226 lung) was 15 µM, the TGI (NCI-H226 lung) was 34.7 µM and the GI50 (NCI-H23 lung) was 15.8 µM. For the same compound, the TGI (NCI-H23 lung) was 32.7 µM, the GI50 (NCI-H460 lung) was 15.7 µM and the TGI (NCI-H460 lung) was 41.2 µM. The GI50 (NCI-H522 lung) was 15.3 µM, the TGI (NCI-H522 lung) was 38.5 µM and the GI50 (NCI/ADR-RES ovarian) was greater than 100 µM. It also gave a TGI (NCI/ADR-RES ovarian) greater than 100 µM, a GI50 (OVCAR-3 ovarian) of 17.4 µM and a TGI (OVCAR-3 ovarian) of 35.5 µM. The GI50 (OVCAR-4 ovarian) was 11.1 µM, the TGI (OVCAR-4 ovarian) was 33 µM and the GI50 (OVCAR-5 ovarian) was 18.3 µM. For the same compound, the TGI (OVCAR-5 ovarian) was 45.4 µM, the GI50 (OVCAR-8 ovarian) was 9.79 µM and the TGI (OVCAR-8 ovarian) was 27.5 µM. The GI50 (PC-3 prostate) was 14.5 µM, the TGI (PC-3 prostate) was 36.3 µM and the GI50 (RPMI-8226 leukemia) was 58 µM. The TGI (RPMI-8226 leukemia) was greater than 100 µM, the GI50 (RXF 393 renal) was 13.6 µM and the TGI (RXF 393 renal) was 32.5 µM. For the same compound, the GI50 (SF-268 CNS) was 14.3 µM, the TGI (SF-268 CNS) was 34.3 µM and the GI50 (SF-295 CNS) was 18.1 µM. It also gave a TGI (SF-295 CNS) of 39.8 µM, a GI50 (SF-539 CNS) of 14.7 µM and a TGI (SF-539 CNS) of 28.2 µM. It also gave a GI50 (SK-MEL-2 melanoma) of 16.4 µM, a TGI (SK-MEL-2 melanoma) of 33.4 µM and a GI50 (SK-MEL-28 melanoma) of 16.6 µM. For the same compound, the TGI (SK-MEL-28 melanoma) was 30.7 µM, the GI50 (SK-MEL-5 melanoma) was 16.9 µM and the TGI (SK-MEL-5 melanoma) was 36.5 µM. It also gave a GI50 (SK-OV-3 ovarian) of 19.6 µM, a TGI (SK-OV-3 ovarian) of 44 µM and a GI50 (SN12C renal) of 16.4 µM. The TGI (SN12C renal) was 31.7 µM, the GI50 (SNB-19 CNS) was 16.6 µM and the TGI (SNB-19 CNS) was 35.4 µM. For the same compound, the GI50 (SNB-75 CNS) was 10.7 µM, the TGI (SNB-75 CNS) was 27.3 µM and the GI50 (SR leukemia) was 22.9 µM. The TGI (SR leukemia) was greater than 100 µM, the GI50 (SW-620 colon) was 15.2 µM and the TGI (SW-620 colon) was 43.3 µM. The GI50 (T-47D breast) was 15.4 µM, the TGI (T-47D breast) was 31.2 µM and the GI50 (TK-10 renal) was 46.2 µM. It also gave a TGI (TK-10 renal) greater than 100 µM, a GI50 (U251 CNS) of 15.7 µM and a TGI (U251 CNS) of 37.6 µM. The GI50 (UACC-257 melanoma) was 19.5 µM, the TGI (UACC-257 melanoma) was 41.5 µM and the GI50 (UACC-62 melanoma) was 16.3 µM. It also gave a TGI (UACC-62 melanoma) of 30.8 µM, a GI50 (UO-31 renal) greater than 100 µM and a TGI (UO-31 renal) greater than 100 µM.
